Test results reported in US20240182460A1, “ALLOSTERIC CHROMENONE INHIBITORS OF PHOSPHOINOSITIDE 3-KINASE (PI3K) FOR THE TREATMENT OF DISEASE” (PETRA PHARMA CORPORATION, priority 2022, published 2024).

Biological target: PI3Kα E545K (Homo sapiens, UniProt P42336, E545K)
Test: PI3Kα E545K mutant in vitro cell based assay, MDA-MB-361 cells
Design: MDA-MB-361 (ATCC-HTB-27) cell line (PI3Kα E545K); host or cells: MDA-MB-361
Settings: MDA-MB-361 cell line, 0% FBS, no insulin, 3 hours treatment
Source text: PI3K-Alpha Kinase (PI3Kα) Activity: Wild-Type PI3Kα, H1047R Mutant PI3Kα, and E545K Mutant PI3Kα In Vitro Cell Based Assays and Determination of IC50 Values for Inhibitors
The MDA-MB-453 (ATCC-HTB-131) cell line (PI3Kα H1047R) and MCF-7 (ATCC-HTB-22) cell line (PI3Kα E545K), MDA-MB-361 (ATCC-HTB-27) cell line (PI3Kα E545K), and SKBR3 (ATCC-HTB-30) cell line (wild type PI3Kα) were obtained from the American Type Culture Collection (Manassas, VA). MDA-MB-453 cells were maintained in Dulbecco's Modified Eagle Media (DMEM, Gibco 12430) supplemented with 10% Fetal Bovine Serum, heat inactivated (FBS HI, Gibco 10082), 1× non-essential amino acids (NEAA, Gibco 11140), 1 mM sodium pyruvate (Gibco 11360) and 1× Anti-Anti (Gibco 15240). MCF-7 cells were maintained in Minimum Essential Media (MEM) (Gibco 11095) supplemented with 10% Fetal Bovine Serum, heat inactivated (FBS HI, Gibco 10082), 1× non-essential amino acids (NEAA, Gibco 11140), 1 mM sodium pyruvate (Gibco 11360), 1× Anti-Anti (Gibco 15240) and 10 μg/mL human insulin (Sigma I 9278). MDA-MB-361 cells were maintained in Dulbecco's Modified Eagle Media (DMEM, Gibco 12430) supplemented with 20% Fetal Bovine Serum, heat inactivated (FBS HI, Gibco 10082), 1× non-essential amino acids (NEAA, Gibco 11140), 1 mM sodium pyruvate (Gibco 11360) and 1× Anti-Anti (Gibco 15240). SKBR3 cells were maintained in McCoy's 5A (Gibco 16600) supplemented with 10% Fetal Bovine Serum, heat inactivated (FBS HI, Gibco 10082), and 1× Anti-Anti (Gibco 15240). Cultures were maintained in a humidified incubator at 37° C. under 5% CO2/95% air.
For compound testing in 0% FBS, MDA-MB-453, MCF-7 and SKBR3 cells were seeded at a density of 1.5×10^4, 1.0×10^4, and 1.0×10^4 cells, respectively, per well in white 384-well plates in 20 μl of Minimum Essential Media (MEM) assay media with 1×NEAA, 1 mM sodium pyruvate, and 1 μg/mL human insulin (Sigma 19278) (Assay Medium); while MDA-MB-361 cells were seeded at a density of 1.5×10^4 per well in white 384-well plates in 20 μl Assay Medium without insulin. After plating, cells were allowed to attach overnight. Compounds dissolved in 10 mM stock solutions in DMSO were serially diluted 1:3 in DMSO to generate a 10-point dilution series and plated using an acoustic liquid handler system (Echo 550 Series Liquid Handler, Labcyte). A 5× intermediate compound dilution plate in MEM with 1×NEAA and 1 mM sodium pyruvate (150 μM starting compound concentration in 1.5% DMSO) was then prepared. Five μl of the intermediate serially diluted compounds were added to the cell plate to final concentrations ranging from […] in 0.3% DMSO. 0.3% DMSO alone was used to establish the maximum (MAX) signal and GDC-0032 at a final concentration of 1 μM was used as a reference compound for the minimum (MIN) signal. After 3 hours treatment, the medium was removed, and the cells were lysed in 10 μL of 1× SureFire Lysis buffer with shaking for 10 minutes at room temperature. The Acceptor Mix (Reaction Buffer 1+Reaction Buffer 2+Activation Buffer+SureFire Ultra Acceptor Beads) was prepared by diluting Activation buffer 25-fold in combined Reaction Buffer 1 and Reaction Buffer 2.
The Acceptor beads were diluted 50-fold in the combined Reaction Buffers. Five μL of Acceptor Mix was added to each well, the plate was sealed and covered with foil and incubated for 1 hour at room temperature. The Donor Mix (dilution buffer+SureFire Ultra Donor Beads) was prepared by diluting Donor Beads 50-fold in dilution buffer. Five μL of the Donor Mix was added to each well and the plate sealed and covered with foil and incubated for 1-2 hours at room temperature in the dark. The plates were read on a Neo2 plate reader instrument from Biotek using standard AlphaLisa settings.
Compounds were tested in duplicate and the % inhibition at each compound concentration was used to generate two dose response curves. One IC50 was generated using average % inhibition at each compound concentration. […]

Sequence of PI3Kα E545K (P42336 whole entry E545K): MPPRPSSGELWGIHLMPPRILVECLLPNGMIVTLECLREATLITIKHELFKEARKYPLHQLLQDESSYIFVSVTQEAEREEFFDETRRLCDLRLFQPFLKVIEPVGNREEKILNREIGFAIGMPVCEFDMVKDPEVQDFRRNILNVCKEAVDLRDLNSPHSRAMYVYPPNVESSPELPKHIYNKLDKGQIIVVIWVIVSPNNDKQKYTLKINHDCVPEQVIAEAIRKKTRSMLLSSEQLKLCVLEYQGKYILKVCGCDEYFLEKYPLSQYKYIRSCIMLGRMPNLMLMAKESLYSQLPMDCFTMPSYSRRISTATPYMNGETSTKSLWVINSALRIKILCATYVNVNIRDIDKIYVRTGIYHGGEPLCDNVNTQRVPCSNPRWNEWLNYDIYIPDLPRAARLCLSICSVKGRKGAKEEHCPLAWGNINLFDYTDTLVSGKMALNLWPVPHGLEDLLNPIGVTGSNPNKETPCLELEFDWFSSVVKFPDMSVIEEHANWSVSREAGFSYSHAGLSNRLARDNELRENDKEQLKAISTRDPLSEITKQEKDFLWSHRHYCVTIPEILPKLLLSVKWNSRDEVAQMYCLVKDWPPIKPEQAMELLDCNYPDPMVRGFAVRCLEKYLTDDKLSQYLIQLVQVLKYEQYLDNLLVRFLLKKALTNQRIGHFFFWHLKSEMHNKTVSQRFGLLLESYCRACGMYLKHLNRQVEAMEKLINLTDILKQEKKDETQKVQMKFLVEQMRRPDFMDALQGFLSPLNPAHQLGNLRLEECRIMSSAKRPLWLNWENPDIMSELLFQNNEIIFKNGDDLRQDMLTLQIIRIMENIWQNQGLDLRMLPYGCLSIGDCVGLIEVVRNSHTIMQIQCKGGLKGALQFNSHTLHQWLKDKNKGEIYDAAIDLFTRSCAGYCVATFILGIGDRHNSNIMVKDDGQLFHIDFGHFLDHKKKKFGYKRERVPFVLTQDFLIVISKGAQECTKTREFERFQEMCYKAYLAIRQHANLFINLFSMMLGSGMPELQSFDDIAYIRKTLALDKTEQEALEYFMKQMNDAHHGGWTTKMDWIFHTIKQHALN
Sequence of PI3Kα E545K (P27986 whole entry partner): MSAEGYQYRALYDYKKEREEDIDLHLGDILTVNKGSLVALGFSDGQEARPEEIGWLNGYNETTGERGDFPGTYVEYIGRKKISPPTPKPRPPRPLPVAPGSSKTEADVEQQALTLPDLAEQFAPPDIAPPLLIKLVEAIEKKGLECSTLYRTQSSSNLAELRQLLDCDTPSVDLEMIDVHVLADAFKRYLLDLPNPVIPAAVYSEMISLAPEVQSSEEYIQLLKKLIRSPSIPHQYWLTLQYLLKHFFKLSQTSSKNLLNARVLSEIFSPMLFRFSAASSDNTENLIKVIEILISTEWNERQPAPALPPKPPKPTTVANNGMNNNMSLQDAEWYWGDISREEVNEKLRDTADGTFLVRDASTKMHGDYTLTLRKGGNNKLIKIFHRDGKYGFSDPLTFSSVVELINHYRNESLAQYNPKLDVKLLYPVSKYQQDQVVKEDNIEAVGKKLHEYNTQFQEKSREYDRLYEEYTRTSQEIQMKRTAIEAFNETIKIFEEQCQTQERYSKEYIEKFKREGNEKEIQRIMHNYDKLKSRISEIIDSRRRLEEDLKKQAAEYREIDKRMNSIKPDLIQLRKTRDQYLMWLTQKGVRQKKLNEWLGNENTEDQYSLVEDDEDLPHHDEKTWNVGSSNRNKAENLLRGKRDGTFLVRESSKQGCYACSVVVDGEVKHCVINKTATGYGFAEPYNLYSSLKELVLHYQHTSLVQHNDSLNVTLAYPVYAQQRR

Q: CONS(=O)(=O)c1nc(Cl)ccc1O[C@H](C)c1cc(C)cc2c(=O)c(C)c(-c3cnn(CC(C)(C)O)c3)oc12 [Example 121C, 6-Chloro-3-[(1R)-1-[2-[1-(2-hydroxy-2-methyl-propyl)pyrazol-4-yl]-3,6-dimethyl-4-oxo-chromen-8-yl]ethoxy]-N-methoxy-pyridine-2-sulfonamide] was tested. Which IC50 did it give?
A: < 500 nM

Q: Cc1cc([C@@H](C)Oc2ccc(Cl)nc2C(N)=O)c2oc(C3CC3)c(C)c(=O)c2c1 [Example 63A, 6-Chloro-3-[(1R)-1-(2-cyclopropyl-3,6-dimethyl-4-oxo-chromen-8-yl)ethoxy]pyridine-2-carboxamide] was tested. Which IC50 did it give?
A: < 500 nM

Q: Which IC50 does the source give for Cc1cc([C@@H](C)Oc2ccc(Cl)nc2C(=O)NOCC2CC2)c2oc(-c3ccc4nn(C)cc4c3)c(C)c(=O)c2c1 [Example 28A, 6-Chloro-N-(cyclopropylmethoxy)-3-[(1R)-1-[3,6-dimethyl-2-(2-methylindazol-5-yl)-4-oxo-chromen-8-yl]ethoxy]pyridine-2-carboxamide] here?
A: < 500 nM

Q: How did the IC50 turn out when Cc1cc([C@@H](C)Oc2ccc(Cl)nc2C(N)=O)c2oc(-c3cnn(C4CC4)c3)c(C)c(=O)c2c1 [Example 51A, 6-Chloro-3-[(1R)-1-[2-(1-cyclopropylpyrazol-4-yl)-3,6-dimethyl-4-oxo-chromen-8-yl]ethoxy]pyridine-2-carboxamide] was run?
A: < 500 nM

Q: How did the IC50 turn out when Cc1cc([C@@H](C)Oc2cccnc2-c2ccccc2F)c2oc(-c3ccc(=O)[nH]c3)c(C)c(=O)c2c1 [Example 30A] was run?
A: < 500 nM

Q: For CCc1nc2ccc(-c3oc4c([C@@H](C)Oc5ccc(Cl)nc5C(N)=O)cc(C)cc4c(=O)c3C)cc2o1 [Example 84C, 6-Chloro-3-[(1R)-1-[2-(2-ethyl-1,3-benzoxazol-6-yl)-3,6-dimethyl-4-oxo-chromen-8-yl]ethoxy]pyridine-2-carboxamide], which IC50 is on record?
A: < 500 nM

Q: Which IC50 does the source give for Cc1cc([C@@H](C)Oc2ccccc2S(N)(=O)=O)c2oc(-c3ccccc3)c(C)c(=O)c2c1 [Example 102C, 2-[(1R)-1-(3,6-Dimethyl-4-oxo-2-phenyl-chromen-8-yl)ethoxy]benzenesulfonamide] here?
A: < 500 nM

Q: With Cc1cc([C@@H](C)Oc2ccc(Cl)nc2C(N)=O)c2oc(-c3ccc4cncn4c3)c(C)c(=O)c2c1 [Example 43C, 6-Chloro-3-[(1R)-1-(2-imidazo[1,5-a]pyridin-6-yl-3,6-dimethyl-4-oxo-chromen-8-yl)ethoxy]pyridine-2-carboxamide] as the compound, how does the IC50 read?
A: < 500 nM

Q: How did the IC50 turn out when Cc1cc([C@@H](C)Oc2ccc(Cl)nc2S(N)(=O)=O)c2oc(-c3cnn(C)c3C)c(C)c(=O)c2c1 [Example 18C, 6-Chloro-3-[(1R)-1-[2-(1,5-dimethylpyrazol-4-yl)-3,6-dimethyl-4-oxo-chromen-8-yl]ethoxy]pyridine-2-sulfonamide] was run?
A: < 500 nM

Q: With CCc1nc2ccc(-c3oc4c([C@@H](C)Oc5ccc(Cl)nc5C(N)=O)cc(C)cc4c(=O)c3C)cc2s1 [Example 83C, 6-Chloro-3-[(1R)-1-[2-(2-ethyl-1,3-benzothiazol-6-yl)-3,6-dimethyl-4-oxo-chromen-8-yl]ethoxy]pyridine-2-carboxamide] as the compound, how does the IC50 read?
A: < 500 nM

Q: For Cc1cc([C@@H](C)Oc2ccc(Cl)nc2C(N)=O)c2oc(-c3cnc4c(c3)OCO4)c(C)c(=O)c2c1 [Example 59A, 6-Chloro-3-[(1R)-1-[2-([1,3]dioxolo[4,5-b]pyridin-6-yl)-3,6-dimethyl-4-oxo-chromen-8-yl]ethoxy]pyridine-2-carboxamide], which IC50 is on record?
A: < 500 nM

Q: How did the IC50 turn out when Cc1cc([C@@H](C)Oc2ccc(Cl)nc2S(N)(=O)=O)c2oc(-c3cnc4c(c3)OCCO4)c(C)c(=O)c2c1 [Example 6B] was run?
A: < 500 nM

Q: Which IC50 does the source give for Cc1cc([C@@H](C)Oc2ccc(Cl)nc2S(N)(=O)=O)c2oc(-c3cnc4c(c3)OCO4)c(C)c(=O)c2c1 [Example 15A, 6-Chloro-3-[(1R)-1-[2-([1,3]dioxolo[4,5-b]pyridin-6-yl)-3,6-dimethyl-4-oxo-chromen-8-yl]ethoxy]pyridine-2-sulfonamide] here?
A: < 500 nM

Q: How did the IC50 turn out when Cc1cc([C@@H](C)Oc2ccc(Cl)nc2S(N)(=O)=O)c2oc(-c3cnn(CC4(C#N)CC4)c3)c(C)c(=O)c2c1 [Example 124C, 6-Chloro-3-[(1R)-1-[2-[1-[(1-cyanocyclopropyl)methyl]pyrazol-4-yl]-3,6-dimethyl-4-oxo-chromen-8-yl]ethoxy]pyridine-2-sulfonamide] was run?
A: < 500 nM

Q: Which IC50 does the source give for Cc1cc([C@@H](C)Oc2ccc(Cl)nc2C(N)=O)c2oc(-c3cnn(C(F)F)c3)c(C)c(=O)c2c1 [Example 58A, 6-Chloro-3-[(1R)-1-[2-[1-(difluoromethyl)pyrazol-4-yl]-3,6-dimethyl-4-oxo-chromen-8-yl]ethoxy]pyridine-2-carboxamide] here?
A: < 500 nM

Q: How did the IC50 turn out when Cc1cc([C@@H](C)Oc2ccc(Cl)nc2C(N)=O)c2oc(-c3ccc4occc4c3)c(C)c(=O)c2c1 [Example 61C, 3-[(1R)-1-[2-(Benzofuran-5-yl)-3,6-dimethyl-4-oxo-chromen-8-yl]ethoxy]-6-chloro-pyridine-2-carboxamide] was run?
A: < 500 nM

Q: With Cc1cc([C@@H](C)Oc2ccc(Cl)nc2S(N)(=O)=O)c2oc(-c3cnn4c3COCC4)c(C)c(=O)c2c1 [Example 3B, 6-Chloro-3-[(1R)-1-[2-(6,7-dihydro-4H-pyrazolo[5,1-c][1,4]oxazin-3-yl)-3,6-dimethyl-4-oxo-chromen-8-yl]ethoxy]pyridine-2-sulfonamide] as the compound, how does the IC50 read?
A: < 500 nM

Q: Cc1cc([C@@H](C)Oc2ccc(Cl)nc2C(N)=O)c2oc(-c3ccc4nn(C)nc4c3)c(C)c(=O)c2c1 [Example 50A, 6-Chloro-3-[(1R)-1-[3,6-dimethyl-2-(2-methylbenzotriazol-5-yl)-4-oxo-chromen-8-yl]ethoxy]pyridine-2-carboxamide] was tested. Which IC50 did it give?
A: < 500 nM

Q: With Cc1cc([C@@H](C)Oc2ccc(Cl)nc2S(N)(=O)=O)c2oc(-c3ccccc3)c(C)c(=O)c2c1 [Example 13A, 6-Chloro-3-[(1R)-1-(3,6-dimethyl-4-oxo-2-phenyl-chromen-8-yl)ethoxy]pyridine-2-sulfonamide] as the compound, how does the IC50 read?
A: < 500 nM

Q: For Cc1cc([C@@H](C)Oc2ccc(F)cc2S(N)(=O)=O)c2oc(-c3cnc4ccoc4c3)c(C)c(=O)c2c1 [Example 106C, 5-Fluoro-2-[(1R)-1-(2-furo[3,2-b]pyridin-6-yl-3,6-dimethyl-4-oxo-chromen-8-yl)ethoxy]benzenesulfonamide], which IC50 is on record?
A: < 500 nM

Q: Cc1cc([C@@H](C)Oc2ccc(Cl)nc2NC(=O)CO)c2oc(-c3cnn(C)c3)c(C)c(=O)c2c1 [Example 27B, N-[6-Chloro-3-[(1R)-1-[3,6-dimethyl-2-(1-methylpyrazol-4-yl)-4-oxo-chromen-8-yl]ethoxy]-2-pyridyl]-2-hydroxy-acetamide] was tested. Which IC50 did it give?
A: < 500 nM

Q: For Cc1cc([C@@H](C)Oc2ccc(Cl)nc2C(N)=O)c2oc(-c3ccc4nn(C5COC5)cc4c3)c(C)c(=O)c2c1 [Example 77C, 6-Chloro-3-[(1R)-1-[3,6-dimethyl-2-[2-(oxetan-3-yl)indazol-5-yl]-4-oxo-chromen-8-yl]ethoxy]pyridine-2-carboxamide], which IC50 is on record?
A: < 500 nM
